According to ChEMBL document CHEMBL4130367, “Click chemistry-based synthesis and anticancer activity evaluation of novel C-14 1,2,3-triazole dehydroabietic acid hybrids” (Eur J Med Chem, 2017):
Calls of active or inactive are those of the source. No cut-off for these calls is given here.

How the values were obtained:
SK-OV-3 = assay: Cytotoxicity against human SKOV3 cells assessed as reduction in cell viability after 72 hrs by MTT assay; type: functional, cell-based; conditions: SK-OV-3, 72 h
MDA-MB-231 [1] = assay: Cytotoxicity against human MDA-MB-231 cells assessed as reduction in cell viability after 72 hrs by MTT assay; type: functional, cell-based; conditions: MDA-MB-231, 72 h
U-251 = assay: Cytotoxicity against human U251 cells assessed as reduction in cell viability after 72 hrs by MTT assay; type: functional, cell-based; conditions: U-251, 72 h
A549 [2] = assay: Cytotoxicity against human A549 cells assessed as reduction in cell viability after 72 hrs by MTT assay; type: functional, cell-based; conditions: A549, 72 h
LNCaP = assay: Cytotoxicity against human LNCAP cells assessed as reduction in cell viability after 72 hrs by MTT assay; type: functional, cell-based
[3] = Cytotoxicity against human […] cells assessed as reduction in cell viability after 72 hrs by MTT assay; type: functional, cell-based
HCT-116 = assay: Cytotoxicity against human HCT116 cells assessed as reduction in cell viability after 72 hrs by MTT assay; type: functional, cell-based; conditions: HCT-116, 72 h
L02 = assay: Cytotoxicity against human HL7702 cells assessed as reduction in cell viability after 72 hrs by MTT assay; type: cell-based; conditions: L02, 72 h
HFF = assay: Cytotoxicity against HFF cells assessed as reduction in cell viability after 72 hrs by MTT assay; type: cell-based; conditions: Homo sapiens
[4] = Selectivity index, ratio of IC50 for human HL7702 cells to IC50 for human U251 cells; type: toxicity; conditions: HL7702 cells versus U251 cells, read-out: Ratio IC50
[5] = Selectivity index, ratio of IC50 for human HL7702 cells to IC50 for human SKBR3 cells; type: toxicity; conditions: HL7702 cells versus SKBR3 cells, read-out: Ratio IC50
[6] = Selectivity index, ratio of IC50 for human HL7702 cells to IC50 for human A549 cells; type: toxicity; conditions: HL7702 cells versus A549 cells, read-out: Ratio IC50
[7] = Selectivity index, ratio of IC50 for human HL7702 cells to IC50 for human LNCAP cells; type: toxicity; conditions: HL7702 cells versus LNCAP cells, read-out: Ratio IC50
[8] = Selectivity index, ratio of IC50 for HFF cells to IC50 for human U251 cells; type: toxicity; conditions: HFF cells versus U251 cells, read-out: Ratio IC50
[9] = Selectivity index, ratio of IC50 for HFF cells to IC50 for human SMCC7721 cells; type: toxicity; conditions: HFF cells versus SMCC7721 cells, read-out: Ratio IC50
[10] = Selectivity index, ratio of IC50 for HFF cells to IC50 for human HCT116 cells; type: toxicity; conditions: HFF cells versus HCT116 cells, read-out: Ratio IC50
NCI/ADR-RES [11] = assay: Growth inhibition of human MCF7/ADR cells at 2.5 to 5 uM after 72 hrs by MTT assay relative to control; type: functional
NCI/ADR-RES [12] = assay: Growth inhibition of human MCF7/ADR cells after 72 hrs by MTT assay; type: functional, cell-based
[13] = Metabolic stability in mouse liver microsomes assessed as parent compound remaining after 30 mins in presence of NADPH by HPLC analysis; type: ADME, microsome; conditions: read-out: Stability
[14] = Metabolic stability in rat liver microsomes assessed as parent compound remaining after 30 mins in presence of NADPH by HPLC analysis; type: ADME, microsome; conditions: read-out: Stability
[15] = Metabolic stability in dog liver microsomes assessed as parent compound remaining after 30 mins in presence of NADPH by HPLC analysis; type: ADME, Canis lupus familiaris, microsome; conditions: read-out: Stability
[16] = Metabolic stability in mouse liver microsomes assessed as parent compound remaining after 60 mins in presence of NADPH by HPLC analysis; type: ADME, microsome; conditions: read-out: Stability
[17] = Metabolic stability in mouse liver microsomes assessed as parent compound remaining after 90 mins in presence of NADPH by HPLC analysis; type: ADME, microsome; conditions: read-out: Stability
[18] = Metabolic stability in dog liver microsomes assessed as parent compound remaining after 90 mins in presence of NADPH by HPLC analysis; type: ADME, Canis lupus familiaris, microsome; conditions: read-out: Stability
[19] = Metabolic stability in rat liver microsomes assessed as parent compound remaining after 120 mins in presence of NADPH by HPLC analysis; type: ADME, microsome; conditions: read-out: Stability
[20] = Metabolic stability in dog liver microsomes assessed as parent compound remaining after 120 mins in presence of NADPH by HPLC analysis; type: ADME, Canis lupus familiaris, microsome; conditions: 2 h
[21] = Metabolic stability in mouse liver microsomes assessed as parent compound remaining after 150 mins in presence of NADPH by HPLC analysis; type: ADME, microsome; conditions: read-out: Stability
[22] = Metabolic stability in mouse liver microsomes assessed as parent compound remaining after 180 mins in presence of NADPH by HPLC analysis; type: ADME, microsome; conditions: read-out: Stability
[23] = Metabolic stability in rat liver microsomes assessed as parent compound remaining after 180 mins in presence of NADPH by HPLC analysis; type: ADME, microsome; conditions: read-out: Stability
[24] = Half life in mouse liver microsomes in presence of NADPH by HPLC analysis; type: ADME, microsome
[25] = Half life in rat liver microsomes in presence of NADPH by HPLC analysis; type: ADME, microsome
[26] = Half life in dog liver microsomes in presence of NADPH by HPLC analysis; type: ADME, Canis lupus familiaris, microsome
A549 [27] = assay: Induction of apoptosis in human A549 cells assessed as genomic DNA fragmentation at 2.5 uM after 24 hrs by DAPI/TUNEL staining based spectrofluorometric method; type: functional, cell-based
MDA-MB-231 [28] = assay: Induction of apoptosis in human MDA-MB-231 cells assessed as late apoptotic cells at 0.1 uM after 24 hrs by Annexin V-FITC/propidium iodide staining based flow cytometry (reference value: 2.97%); type: functional
MDA-MB-231 [29] = assay: Induction of apoptosis in human MDA-MB-231 cells assessed as dead cells at 0.1 uM after 24 hrs by Annexin V-FITC/propidium iodide staining based flow cytometry (reference value: 2.15%); type: functional
MDA-MB-231 [30] = assay: Induction of apoptosis in human MDA-MB-231 cells assessed as early apoptotic cells at 1 uM after 24 hrs by Annexin V-FITC/propidium iodide staining based flow cytometry (reference value: 2.33%); type: functional
MDA-MB-231 [31] = assay: Induction of apoptosis in human MDA-MB-231 cells assessed as late apoptotic cells at 1 uM after 24 hrs by Annexin V-FITC/propidium iodide staining based flow cytometry (reference value: 2.97%); type: functional
MDA-MB-231 [32] = assay: Induction of apoptosis in human MDA-MB-231 cells assessed as downregulation of Bcl2 protein expression after 48 hrs by Western blot analysis; type: functional, cell-based
MDA-MB-231 [33] = assay: Induction of apoptosis in human MDA-MB-231 cells assessed as upregulation of Bax protein expression after 48 hrs by Western blot analysis; type: functional, cell-based
MDA-MB-231 [34] = assay: Downregulation of NFkB p65 protein expression in human MDA-MB-231 cells up to 1 uM after 48 hrs by Western blot analysis; type: functional, cell-based
MDA-MB-231 [35] = assay: Induction of apoptosis in human MDA-MB-231 cells assessed as cleaved caspase-3 protein expression up to 1 uM after 48 hrs by Western blot analysis; type: functional, cell-based
MDA-MB-231 [36] = assay: Induction of apoptosis in human MDA-MB-231 cells assessed as cleaved PARP protein expression up to 1 uM after 48 hrs by Western blot analysis; type: functional, cell-based
MCF7 = assay: cells; conditions: Homo sapiens, MCF7, 72 h
Description: Cytotoxicity against human MCF7 cells assessed as reduction in cell viability after 72 hrs by MTT assay

Question: For COC(=O)[C@]1(C)CCC[C@]2(C)c3ccc(C(C)C)c(NC(=O)Cn4cc(-c5cccc(NC(=O)OC(C)(C)C)c5)nn4)c3CC[C@@H]12, which IC50 (SK-OV-3) is on record?
Answer: 1200 nM

Question: And the IC50 (MDA-MB-231 [1])?
Answer: 700 nM

Question: And the IC50 (U-251)?
Answer: 1800 nM

Question: What about the IC50 (A549 [2]) of the same molecule?
Answer: 1300 nM

Question: And the IC50 (LNCaP)?
Answer: 600 nM

Question: What about the IC50 [3] of the same molecule?
Answer: 1100 nM

Question: What about the IC50 (HCT-116) of the same molecule?
Answer: 1000 nM

Question: What about the IC50 (L02) of the same molecule?
Answer: 7800 nM

Question: What about the IC50 (HFF) of the same molecule?
Answer: 5400 nM

Question: What about the selectivity ratio [4] of the same molecule?
Answer: 4.5

Question: What about the selectivity ratio [5] of the same molecule?
Answer: 8.4

Question: What about the selectivity ratio [6] of the same molecule?
Answer: 6.1

Question: What about the selectivity ratio [7] of the same molecule?
Answer: 12.4

Question: And the selectivity ratio [8]?
Answer: 3.1

Question: And the selectivity ratio [9]?
Answer: 5.2

Question: And the selectivity ratio [10]?
Answer: 5.4

Question: And the “growth inhibition (GI)” value (NCI/ADR-RES [11])?
Answer: >50%

Question: And the IC50 (NCI/ADR-RES [12])?
Answer: 900 nM

Question: And the “growth inhibition (GI)” value (NCI/ADR-RES [12])?
Answer: Dose-dependent effect

Question: And the remaining at 0.5 h [13]?
Answer: 87.9%

Question: And the remaining at 0.5 h [14]?
Answer: 85.4%

Question: What about the remaining at 0.5 h [15] of the same molecule?
Answer: 77.3%

Question: What about the remaining at 1 h [16] of the same molecule?
Answer: 72.6%

Question: What about the remaining at 1.5 h [17] of the same molecule?
Answer: 61.3%

Question: And the remaining at 1.5 h [18]?
Answer: 31.6%

Question: And the remaining at 2 h [19]?
Answer: 58.4%

Question: What about the Stability [20] of the same molecule?
Answer: 4.8%

Question: And the remaining at 2.5 h [21]?
Answer: 25.7%

Question: What about the remaining at 3 h [22] of the same molecule?
Answer: 11.1%

Question: And the remaining at 3 h [23]?
Answer: 31%

Question: What about the half-life [24] of the same molecule?
Answer: 1.76 h

Question: What about the half-life [25] of the same molecule?
Answer: 2.19 h

Question: And the t1/2 [26]?
Answer: 1.16 h

Question: And the Activity (A549 [27])?
Answer: Active

Question: And the Activity (MDA-MB-231 [28])?
Answer: 9.91%

Question: And the Activity (MDA-MB-231 [29])?
Answer: 7.57%

Question: What about the Activity (MDA-MB-231 [30]) of the same molecule?
Answer: 6.13%

Question: What about the Activity (MDA-MB-231 [31]) of the same molecule?
Answer: 16.75%

Question: What about the Activity (MDA-MB-231 [32]) of the same molecule?
Answer: Active

Question: And the Activity (MDA-MB-231 [33])?
Answer: Active

Question: What about the Activity (MDA-MB-231 [34]) of the same molecule?
Answer: Active

Question: What about the Activity (MDA-MB-231 [35]) of the same molecule?
Answer: Active

Question: What about the Activity (MDA-MB-231 [36]) of the same molecule?
Answer: Active

Question: What about the IC50 (MCF7) of the same molecule?
Answer: 800 nM
